Key:
Type in all cases: cell-based, human
annexin A11 mRNA = assay: siRNA knockdown of annexin A11, real-time PCR of mRNA in 2008 cells; conditions: siRNA 40 nM, 3 days, compared with negative control cells (-Ctr), P<0.05
Procedure: (§1) (A and B) Effect of silencing of annexin A11 using different siRNA. 2008 cells were treated with one (A1 or A2 or A3) or a combination (A1-3) of three stealth RNA against annexin A11 or nonspecific sequence (-Ctr) at the concentration of 40 nM or without treatment (Wt) for 3 days. Immunoblot analysis (A) and real-time PCR (B) were performed to confirm the suppression of annexin A11 mRNA and protein expressions in the cells. β-Actin was taken as an additional control for equal sampling in immunoblot analysis (A). The relative mRNA expression level of each sample was normalized to GAPDH expression and compared with -Ctr sample. *P<0.05 (B). (C) Dose-dependent silencing of annexin A11 by siRNA. 2008 cells were treated with RNAi (A1) at the indicated concentrations of 40, 20, 10, or 5 nM or -Ctr at the concentration of 40 nM or without treatment (Wt) for 3 days. Immunoblot analysis (C) was performed to check the annexin A11 expression levels in the cells. β-Actin was taken as an additional control for equal sampling. (D) Duration of silencing of annexin A11 using siRNA. 2008 or HEY cells were treated with RNAi (A1) or -Ctr at the concentration of 40 nM. Immunoblot analysis was performed to analyze the annexin A11 expression levels in these cells.
All stealth RNA interference (RNAi) sequences were purchased from Invitrogen. The three stealth RNAi that targeted different annexin A11 sequences were as follows: A1, […]; A2, […]; and A3, […]. The stealth RNAi negative control duplex (medium GC) was used as a negative control. […] The optimized dose and duration of RNAi silencing were experimentally determined. […]
(Invitrogen) according to the manufacturer's instructions. […] An experiment consisted of triplicate amplification reactions for each gene product being analyzed. […] The cycle threshold number (CT) was determined for each PCR using iQ5 Real-time PCR Detection System (Bio-Rad). […] Results are expressed as relative abundance of a specific mRNA between control and experimental sample (fold change, mean±SD).

annexin A11 protein [1] = assay: siRNA knockdown of annexin A11, immunoblot analysis in 2008 cells; conditions: for annexin A11 protein expression (immunoblot): siRNA 40 nM, compared with strong expression in -Ctr and Wt cells
Procedure: as §1
All stealth RNA interference (RNAi) sequences were purchased from Invitrogen. The three stealth RNAi that targeted different annexin A11 sequences were as follows: A1, […]; A2, […]; and A3, […]. The stealth RNAi negative control duplex (medium GC) was used as a negative control. Transfection of annexin A11-specific siRNA and the negative control was performed using Lipofectamine 2000 (Invitrogen). The optimized dose and duration of RNAi silencing were experimentally determined. Briefly, cancer cells were seeded the day before siRNA transfection in either six-well plates or T25 flasks and were 30% to 50% confluent at the time of transfection. Stealth RNAi and Lipofectamine were diluted in Opti-MEM I Medium (Invitrogen), and 40 nM of the siRNA duplex was used in each transfection mixture. 2008 or HEY cells were transfected with one annexin A11-specific siRNA (A1 or A2 or A3) or a combination of three different siRNA at the equal amount (A1-3) or negative control for 2 to 3 days and were then harvested for the downstream experiments.
The denatured samples were electrophoresed on 4% to 15% gradient SDS-PAGE gels (Bio-Rad), electroblotted on nitrocellulose membranes (Bio-Rad), and probed with the respective antibodies against different targets. Both anti-annexin A11 (1:10,000) and anti-annexin A5 (1:2000) monoclonal antibodies were purchased from BD Biosciences (San Jose, Calif.). Rabbit anti-human HMOX1 polyclonal antibody (1:500) and mouse polyclonal anti-LY6D (1:500) were purchased from GenWay Biotech (San Diego, Calif.) and Novus Biologicals (Littleton, Colo.), respectively. The bound antibodies were visualized with horseradish peroxidase-conjugated secondary antibodies and enhanced chemiluminescence (Amersham, Pittsburgh, Pa.). Actin in the corresponding cell lysates was used as an additional control to show equal loading.

annexin A11 protein [2] = assay: siRNA knockdown of annexin A11, immunoblot analysis in HEY cells; conditions: after 2 days of siRNA transfection at 40 nM
Procedure: as §1, with “Immunoblot analysis was performed to analyze the annexin A11 expression levels in these cells.” left out
All stealth RNA interference (RNAi) sequences were purchased from Invitrogen. […] The optimized dose and duration of RNAi silencing were experimentally determined. […]

2008 cells [3] = assay: Cell colony formation assay after annexin A11 siRNA, 2008 cells; conditions: siRNA 40 nM 3 days, colonies counted six days after plating, P<0.01
Procedure: (§2) (A and B) Cell proliferation assay. 2008 (A) or HEY (B) cells were treated with RNAi (A1) or -Ctr at the concentration of 40 nM for 3 days, respectively, and then plated at 3000 viable cells per well into 96-well plates. Every 24 hours, one plate was subjected to assay by CCK-8 kit. The data in each time point are averaged values from eight replicates (P<0.05). (C) Colony formation assay. 2008 cells were treated in the same way as above for 3 days and then plated at 3000 viable cells per well into six-well plates. Six days after plating, cells were fixed with methanol and stained with 0.1% crystal violet and colonies were counted. The experiment was performed in six replicates (P<0.01). (D) Cell cytotoxicity assay. 2008 cells were treated in same way as above for 3 days and then plated at 3000 viable cells per well into 96-well plates. […]
2008 and HEY cells were cultured in T25 flasks and transfected with A1 or negative control for 3 days. Cells were then collected, counted, and plated at 3000 viable cells per well into six-well plates. Six days after plating, cells were fixed with methanol and stained with 0.1% crystal violet, and colonies were counted under the light microscope. […]

HEY cells = assay: Cell proliferation assay (CCK-8) after annexin A11 siRNA, HEY cells; conditions: siRNA 40 nM 3 days, compared with negative control transfectants, P<0.05
Procedure: as §2
(§3) Cell Counting Kit-8 (CCK-8; Dojindo, Gaithersburg, Md.) was used in cell proliferation assay. […] Cells were then collected by trypsinization, counted by using a hemacytometer with trypan blue dye, and plated at 3000 viable cells per well into 96-well tissue culture plates in a final volume of 100 μl. […] The absorbance at 450 nm was measured with a microplate reader (EL 312e; Biotek Instruments, Winooski, Vt.). […]

2008 cells [4] = assay: Cell proliferation assay (CCK-8) after annexin A11 siRNA, 2008 cells; conditions: siRNA 40 nM 3 days, compared with negative control transfectants, P<0.05
Procedure: as §2, §3

Substance | down-regulation in annexin A11 mRNA expression levels (annexin A11 mRNA) | silencing effect on annexin A11 expression by concentration (immunoblot) (annexin A11 protein [1]; 5 to 40 nM, 3 days) | duration of silencing of annexin A11 protein expression (annexin A11 protein [1]; after 3 days of siRNA transfection at 40 nM) [days] | annexin A11 protein expression (immunoblot) (annexin A11 protein [1]; 3 days) | duration of silencing of annexin A11 protein expression (annexin A11 protein [2]) [days] | colony formation ability (2008 cells [3]) | decrease in rate of proliferation (HEY cells) [%] | decrease in rate of proliferation (2008 cells [4]) [%]
A1: stealth RNAi (Invitrogen) targeting annexin A11, GGCCGUGGUGAAAUGUCUCAAGAAU (chemistry not given here) | three-fold to four-fold | dose-dependent silencing effect | ≥ 10 | barely detectable | ≥ 7 | greatly damaged | 34 | 40
A2: stealth RNAi (Invitrogen) targeting annexin A11, CCUCCUGGACAUCAGAUCAGAGUAU (chemistry not given here) | three-fold to four-fold |  |  | barely detectable |  |  |  | 
A3: stealth RNAi (Invitrogen) targeting annexin A11, GGGAUUACCGGAAGAUUCUGCUGAA (chemistry not given here) | three-fold to four-fold |  |  | barely detectable |  |  |  | 
